Reference: patent US9133204B2, “5-membered heterocyclic amides and related compounds” (H. Lundbeck A/S, priority 2007, dated 2015)

What follows are compounds tested against T1, P2X7 receptor (Homo sapiens, UniProt Q99572) (assay: High throughput P2X7 calcium mobilization assay (Example 4A)). Settings: SH-SY5Y cells; 50% decrease in fluorescence response of cells exposed to 80 μM BzATP; Table I.
T1 construct: host or cells: SH-SY5Y
T1 sequence (Q99572 1-595): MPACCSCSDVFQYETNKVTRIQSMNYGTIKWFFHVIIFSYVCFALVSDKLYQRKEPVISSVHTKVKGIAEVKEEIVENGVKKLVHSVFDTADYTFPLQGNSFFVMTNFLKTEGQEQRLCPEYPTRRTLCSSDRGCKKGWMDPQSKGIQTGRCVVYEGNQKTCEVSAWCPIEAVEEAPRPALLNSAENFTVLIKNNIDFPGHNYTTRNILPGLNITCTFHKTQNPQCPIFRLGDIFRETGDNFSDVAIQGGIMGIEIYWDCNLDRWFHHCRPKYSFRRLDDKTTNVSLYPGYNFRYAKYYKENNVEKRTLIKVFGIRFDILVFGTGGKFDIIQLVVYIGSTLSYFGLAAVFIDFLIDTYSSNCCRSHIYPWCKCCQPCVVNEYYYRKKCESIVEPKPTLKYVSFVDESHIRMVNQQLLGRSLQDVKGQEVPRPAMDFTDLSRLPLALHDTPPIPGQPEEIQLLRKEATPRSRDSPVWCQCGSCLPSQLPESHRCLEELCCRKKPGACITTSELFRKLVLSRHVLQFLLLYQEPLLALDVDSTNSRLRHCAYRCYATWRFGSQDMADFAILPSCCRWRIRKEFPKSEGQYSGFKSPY
Type: cell-based
How it was run: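 Calcium mobilization read by FLIPR as peak fluorescence over 2 min after adding BzATP to a final 80 μM (about EC50). Beforehand, Fluo-4 AM-loaded SH-SY5Y cells sat 1 h at room temperature with compound at 1–2500 nM in pH 7.4 sucrose/HEPES buffer; signal minus no-agonist wells.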

IC50, ≤ 2 µM:
Nc1cnc(-n2cc(C(=O)NCC34CC5CC(CC(C5)C3)C4)c(C(F)(F)F)n2)cn1 [Compound 148, N-(adamantan-1-ylmethyl)-1-(5-aminopyrazin-2-yl)-3-(trifluoromethyl)-1H-pyrazole-4-carboxamide]
CC(CNC(=O)c1cn(-c2ncc(F)c(N)n2)nc1C(F)(F)F)c1ccc(Cl)cc1 (centres unmarked) [Compound 149, 1-(4-amino-5-fluoropyrimidin-2-yl)-N-[2-(4-chlorophenyl)propyl]-3-(trifluoromethyl)-1H-pyrazole-4-carboxamide]
CCCC(CNC(=O)c1cn(-c2ncc(F)c(N)n2)nc1C(F)(F)F)c1ccc(Cl)cc1 (centres unmarked) [Compound 150, 1-(4-amino-5-fluoropyrimidin-2-yl)-N-[2-(4-chlorophenyl)pentyl]-3-(trifluoromethyl)-1H-pyrazole-4-carboxamide]
O=C(NCC1(c2cccnc2)CCCCC1)c1cn(-c2ncccn2)nc1C(F)(F)F [Compound 151, N-[(1-pyridin-3-ylcyclohexyl)methyl]-1-pyrimidin-2-yl-3-(trifluoromethyl)-1H-pyrazole-4-carboxamide]
O=C(NCC1(c2cccnc2)CCCCC1)c1cn(-c2ncc(F)cn2)nc1C(F)(F)F [Compound 152, 1-(5-fluoropyrimidin-2-yl)-N-[(1-pyridin-3-ylcyclohexyl)methyl]-3-(trifluoromethyl)-1H-pyrazole-4-carboxamide]
O=C(NCC12CC3CC(CC(C3)C1)C2)c1cn(-c2cc(=O)[nH]cn2)nc1C(F)(F)F [Compound 153, N-(adamantan-1-ylmethyl)-1-(6-oxo-1,6-dihydropyrimidin-4-yl)-3-(trifluoromethyl)-1H-pyrazole-4-carboxamide]
Nc1nc(-n2cc(C(=O)NCC3(O)CCCCCC3)c(C(F)(F)F)n2)ncc1F [Compound 154, 1-(4-amino-5-fluoropyrimidin-2-yl)-N-[(1-hydroxycycloheptyl)methyl]-3-(trifluoromethyl)-1H-pyrazole-4-carboxamide]
Nc1ccnc(-n2cc(C(=O)NCC3(c4cccnc4)CCCCC3)c(C(F)(F)F)n2)n1 [Compound 155, 1-(4-aminopyrimidin-2-yl)-N-[(1-pyridin-3-ylcyclohexyl)methyl]-3-(trifluoromethyl)-1H-pyrazole-4-carboxamide]
Cc1cnc(-n2cc(C(=O)NCC3(c4cccnc4)CCCCC3)c(C(F)(F)F)n2)nc1N [Compound 156, 1-(4-amino-5-methylpyrimidin-2-yl)-N-[(1-pyridin-3-ylcyclohexyl)methyl]-3-(trifluoromethyl)-1H-pyrazole-4-carboxamide]
Nc1nccnc1-n1cc(C(=O)NCC2(c3cccnc3)CCCCC2)c(C(F)(F)F)n1 [Compound 157, 1-(3-aminopyrazin-2-yl)-N-[(1-pyridin-3-ylcyclohexyl)methyl]-3-(trifluoromethyl)-1H-pyrazole-4-carboxamide]
Cc1ccc(C2(CNC(=O)c3sc(-c4ncccn4)nc3C(F)(F)F)CCCCC2)cn1 [Compound 158, N-{[1-(6-methylpyridin-3-yl)cyclohexyl]methyl}-2-pyrimidin-2-yl-4-(trifluoromethyl)-1,3-thiazole-5-carboxamide]
O=C(NCC1(N2CCOCC2)CCCCC1)c1sc(-c2ncccn2)nc1C(F)(F)F [Compound 159, N-[(1-morpholin-4-ylcyclohexyl)methyl]-2-pyrimidin-2-yl-4-(trifluoromethyl)-1,3-thiazole-5-carboxamide]
CCCC(CNC(=O)c1sc(-c2ncccn2)nc1C(F)(F)F)c1ccc(Cl)cc1 (centres unmarked) [Compound 160, N-[2-(4-chlorophenyl)pentyl]-2-pyrimidin-2-yl-4-(trifluoromethyl)-1,3-thiazole-5-carboxamide]
O=C(NCC1(c2cccnc2)CCCCC1)c1sc(-c2ncccn2)nc1C(F)(F)F [Compound 161, N-[(1-pyridin-3-ylcyclohexyl)methyl]-2-pyrimidin-2-yl-4-(trifluoromethyl)-1,3-thiazole-5-carboxamide]
N[C@@H]1CCN(C2(CNC(=O)c3sc(-c4ncccn4)nc3C(F)(F)F)CCCCC2)C1 [Compound 162, N-({1-[(3R)-3-aminopyrrolidin-1-yl]cyclohexyl}methyl)-2-pyrimidin-2-yl-4-(trifluoromethyl)-1,3-thiazole-5-carboxamide]
CC(C)CC(CNC(=O)c1sc(N2CC[C@@H](N(C)C)C2)nc1C(F)(F)F)c1ccc(C(F)(F)F)cc1 (stereo partly drawn) [Compound 163, 2-[(3R)-3-(dimethylamino)pyrrolidin-1-yl]-N-{4-methyl-2-[4-(trifluoromethyl)phenyl]pentyl}-4-(trifluoromethyl)-1,3-thiazole-5-carboxamide]
O=C(NCC1(c2cccnc2)CCCCC1)c1sc(-c2cccnc2)nc1C(F)(F)F [Compound 164, 2-pyridin-3-yl-N-[(1-pyridin-3-ylcyclohexyl)methyl]-4-(trifluoromethyl)-1,3-thiazole-5-carboxamide]
CC(C)CC(CNC(=O)c1sc(-c2cccnc2)nc1C(F)(F)F)c1ccc(C(F)(F)F)cc1 (centres unmarked) [Compound 165, N-{4-methyl-2-[4-(trifluoromethyl)phenyl]pentyl}-2-pyridin-3-yl-4-(trifluoromethyl)-1,3-thiazole-5-carboxamide]
CCc1nc(-c2cccnc2)sc1C(=O)NCC1(c2cccnc2)CCCCC1 [Compound 166, 4-ethyl-2-pyridin-3-yl-N-[(1-pyridin-3-ylcyclohexyl)methyl]-1,3-thiazole-5-carboxamide]
Nc1nc(-n2cc(C(=O)NCC3(c4ccc(Cl)cc4)CCC3)c(C(F)(F)F)n2)ncc1F [Compound 167, 1-(4-amino-5-fluoropyrimidin-2-yl)-N-{[1-(4-chlorophenyl)cyclobutyl]methyl}-3-(trifluoromethyl)-1H-pyrazole-4-carboxamide]
COc1ccc(C2(CNC(=O)c3cn(-c4ncc(F)c(N)n4)nc3C(F)(F)F)CCCCC2)cc1 [Compound 168, 1-(4-amino-5-fluoropyrimidin-2-yl)-N-{[1-(4-methoxyphenyl)cyclohexyl]methyl}-3-(trifluoromethyl)-1H-pyrazole-4-carboxamide]
Nc1nc(-n2cc(C(=O)NCC(O)C34CC5CC(CC(C5)C3)C4)c(C(F)(F)F)n2)ncc1F (centres unmarked) [Compound 169, N-(2-adamantan-1-yl-2-hydroxyethyl)-1-(4-amino-5-fluoropyrimidin-2-yl)-3-(trifluoromethyl)-1H-pyrazole-4-carboxamide]
Cc1cnc(-n2cc(C(=O)NCC3(c4ccc(C(F)(F)F)cc4)CCCCC3)c(C)n2)nc1N [Compound 170, 1-(4-amino-5-methylpyrimidin-2-yl)-3-methyl-N-({1-[4-(trifluoromethyl)phenyl]cyclohexyl}methyl)-1H-pyrazole-4-carboxamide]
Cc1cnc(-n2cc(C(=O)NCC(CC(C)C)c3ccc(C(F)(F)F)cc3)c(C(F)(F)F)n2)nc1N (centres unmarked) [Compound 171, 1-(4-amino-5-methylpyrimidin-2-yl)-N-{4-methyl-2-[4-(trifluoromethyl)phenyl]pentyl}-3-(trifluoromethyl)-1H-pyrazole-4-carboxamide]
Cc1cnc(-n2cc(C(=O)NCC3(c4ccc(C(F)(F)F)cc4)CCCCC3)c(C(F)(F)F)n2)nc1N [Compound 172, 1-(4-amino-5-methylpyrimidin-2-yl)-3-(trifluoromethyl)-N-({1-[4-(trifluoromethyl)phenyl]cyclohexyl}methyl)-1H-pyrazole-4-carboxamide]
Cc1nn(-c2nccc(N)n2)cc1C(=O)NCC(CC(C)C)c1ccc(C(F)(F)F)cc1 (centres unmarked) [Compound 173, 1-(4-aminopyrimidin-2-yl)-3-methyl-N-{4-methyl-2-[4-(trifluoromethyl)phenyl]pentyl}-1H-pyrazole-4-carboxamide]
Cc1nn(-c2cnccn2)cc1C(=O)NCC(CC(C)C)c1ccc(C(F)(F)F)cc1 (centres unmarked) [Compound 174, 3-methyl-N-{4-methyl-2-[4-(trifluoromethyl)phenyl]pentyl}-1-pyrazin-2-yl-1H-pyrazole-4-carboxamide]
Cc1nn(-c2nccc(N)n2)cc1C(=O)NCC1(c2ccc(C(F)(F)F)cc2)CCCCC1 [Compound 175, 1-(4-aminopyrimidin-2-yl)-3-methyl-N-({1-[4-(trifluoromethyl)phenyl]cyclohexyl]methyl)-1H-pyrazole-4-carboxamide]
Cc1cnc(-n2cc(C(=O)NCC(CC(C)C)c3ccc(C(F)(F)F)cc3)c(C(C)(C)C)n2)nc1N (centres unmarked) [Compound 176, 1-(4-amino-5-methylpyrimidin-2-yl)-3-tert-butyl-N-{4-methyl-2-[4-(trifluoromethyl)phenyl]pentyl}-1H-pyrazole-4-carboxamide]
